How the values were obtained:
[1] = molecular target: T1, hFASN enzyme (full length) (Homo sapiens, UniProt P49327); assay: Fatty Acid Synthase (FASN) Inhibition Scintillation Proximity Assay; type: biochemical; settings: for IC50: mean where tested more than once, ~ = standard error of pIC50 larger than 0.5; for inhibition at 10 µM: read-out: FASN % Effect @1E−05M
T1 construct: 10 μL hFASN enzyme (full length, 300 ng, purified in house); made in house
How it was run: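 Purified full-length human FASN (300 ng) incubated 60 min at room temperature with NADPH, [3H]-acetyl-CoA and malonyl-CoA in 100 mM KH2PO4 pH 7.5, 1 mM DTT; compound at 30 μM to 0.01 μM. [3H]-palmitate captured by SPA imaging beads; IC50 from 4-parameter fit, reported as pIC50.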

[2] = molecular target: T2, FASN Keto-reductase Domain (Homo sapiens, UniProt P49327); assay: Fatty Acid Synthase Keto-Reductase Domain (FASN KR) Inhibition; type: biochemical; settings: mean where tested more than once; read-out: FASN K-R Domain pIC50 (converted)
T2 construct: 10 μL hFASN enzyme (full length, 300 ng, purified in house) and 360 μM NADPH; made in house
T2 sequence (P49327 whole entry, the tested form may be a part): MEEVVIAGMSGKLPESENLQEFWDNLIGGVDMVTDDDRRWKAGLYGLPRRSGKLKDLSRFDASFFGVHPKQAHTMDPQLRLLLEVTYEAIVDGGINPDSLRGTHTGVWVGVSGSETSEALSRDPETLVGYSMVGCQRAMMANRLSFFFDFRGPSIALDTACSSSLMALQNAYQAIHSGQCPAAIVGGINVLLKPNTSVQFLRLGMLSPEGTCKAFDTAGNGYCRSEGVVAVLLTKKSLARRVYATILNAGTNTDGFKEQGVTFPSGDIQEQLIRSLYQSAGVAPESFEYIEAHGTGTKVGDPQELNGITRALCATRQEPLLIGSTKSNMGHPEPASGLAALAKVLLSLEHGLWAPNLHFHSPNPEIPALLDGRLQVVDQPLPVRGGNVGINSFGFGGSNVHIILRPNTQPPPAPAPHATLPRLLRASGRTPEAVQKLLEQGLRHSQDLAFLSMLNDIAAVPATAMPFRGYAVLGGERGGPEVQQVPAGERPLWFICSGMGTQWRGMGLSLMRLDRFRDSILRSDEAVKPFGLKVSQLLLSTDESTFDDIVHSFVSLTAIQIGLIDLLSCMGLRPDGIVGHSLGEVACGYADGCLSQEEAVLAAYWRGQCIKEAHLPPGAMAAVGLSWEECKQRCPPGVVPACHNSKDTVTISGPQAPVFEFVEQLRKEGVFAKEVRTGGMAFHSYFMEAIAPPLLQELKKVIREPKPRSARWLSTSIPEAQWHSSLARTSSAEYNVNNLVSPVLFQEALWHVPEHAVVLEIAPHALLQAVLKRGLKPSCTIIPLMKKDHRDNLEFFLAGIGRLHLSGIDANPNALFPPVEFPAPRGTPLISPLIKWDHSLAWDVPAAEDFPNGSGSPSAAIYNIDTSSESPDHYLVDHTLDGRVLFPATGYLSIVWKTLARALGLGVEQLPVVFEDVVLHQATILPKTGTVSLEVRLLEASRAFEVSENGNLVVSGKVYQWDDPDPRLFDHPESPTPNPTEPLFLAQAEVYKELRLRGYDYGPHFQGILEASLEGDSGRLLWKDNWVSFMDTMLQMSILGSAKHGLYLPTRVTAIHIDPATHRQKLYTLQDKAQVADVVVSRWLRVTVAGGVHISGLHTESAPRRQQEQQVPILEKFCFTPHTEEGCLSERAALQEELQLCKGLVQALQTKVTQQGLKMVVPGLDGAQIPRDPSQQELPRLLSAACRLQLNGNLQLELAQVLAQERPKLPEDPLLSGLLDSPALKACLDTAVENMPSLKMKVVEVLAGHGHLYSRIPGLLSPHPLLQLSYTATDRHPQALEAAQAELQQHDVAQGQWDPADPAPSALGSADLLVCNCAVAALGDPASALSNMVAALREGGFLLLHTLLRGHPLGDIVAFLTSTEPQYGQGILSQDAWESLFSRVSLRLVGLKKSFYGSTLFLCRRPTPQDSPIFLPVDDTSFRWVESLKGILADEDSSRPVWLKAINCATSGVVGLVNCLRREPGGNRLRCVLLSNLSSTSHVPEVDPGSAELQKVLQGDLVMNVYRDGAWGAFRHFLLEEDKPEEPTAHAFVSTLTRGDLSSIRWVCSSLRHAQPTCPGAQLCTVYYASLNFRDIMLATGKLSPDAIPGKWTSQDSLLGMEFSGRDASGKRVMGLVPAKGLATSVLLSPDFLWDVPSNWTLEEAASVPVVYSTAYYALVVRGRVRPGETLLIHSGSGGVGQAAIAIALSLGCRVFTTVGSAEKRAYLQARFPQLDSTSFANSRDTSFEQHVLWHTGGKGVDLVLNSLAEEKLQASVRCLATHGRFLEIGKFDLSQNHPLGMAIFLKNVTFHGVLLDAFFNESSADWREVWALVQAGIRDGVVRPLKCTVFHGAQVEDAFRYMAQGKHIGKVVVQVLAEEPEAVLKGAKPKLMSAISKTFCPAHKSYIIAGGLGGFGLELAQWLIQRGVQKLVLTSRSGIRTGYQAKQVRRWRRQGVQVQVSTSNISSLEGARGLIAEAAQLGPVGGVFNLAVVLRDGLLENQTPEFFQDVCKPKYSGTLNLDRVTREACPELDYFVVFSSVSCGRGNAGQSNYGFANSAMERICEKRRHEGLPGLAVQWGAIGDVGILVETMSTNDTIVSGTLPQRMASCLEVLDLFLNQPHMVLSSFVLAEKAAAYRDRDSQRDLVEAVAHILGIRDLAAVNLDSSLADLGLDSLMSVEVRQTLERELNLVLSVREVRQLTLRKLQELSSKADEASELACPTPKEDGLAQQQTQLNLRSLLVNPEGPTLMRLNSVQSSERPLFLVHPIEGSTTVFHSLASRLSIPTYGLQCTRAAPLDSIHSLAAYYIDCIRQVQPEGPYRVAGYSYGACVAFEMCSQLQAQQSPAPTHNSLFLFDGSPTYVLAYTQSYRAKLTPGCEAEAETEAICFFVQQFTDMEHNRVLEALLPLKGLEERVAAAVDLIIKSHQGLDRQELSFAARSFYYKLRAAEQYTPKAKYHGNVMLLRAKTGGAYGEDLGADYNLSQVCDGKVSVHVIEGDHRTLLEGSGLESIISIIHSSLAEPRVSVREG
How it was run: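 Full-length human FASN (300 ng) in 100 mM KH2PO4 pH 7.5 with 360 μM NADPH and 180 mM ethyl acetoacetate (stock); A340 decrease read over 20 min at room temperature.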

[3] = tested on: A2780 ovarian cells; assay: A2780 Ovarian Cell Proliferation Assay in Lipid Reduced Medium, without Palmitate; type: cell-based; settings: Homo sapiens, A2780; lipid reduced medium, without palmitate, 96 h, MTT; read-out: Proliferation A2780 w/o Palmitate pIC50 (converted)
How it was run: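 A2780 cells were seeded in 10% FCS medium and switched next day to 10% lipid-reduced serum without palmitate. Compounds at 0.01–30 μM were added with 0.2% DMSO, 0.2% fatty-acid-free BSA and 0.25% ethanol final. After 96 h, MTT absorbance at 544 nm was normalized to plate controls, and IC50/pIC50 came from a 4-parameter logistic fit.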

[4] = tested on: A2780 ovarian cells; assay: A2780 Ovarian Cell Proliferation Assay in Lipid Reduced Medium, with Palmitate (control); type: cell-based; settings: Homo sapiens, A2780; lipid reduced medium, 25 μM palmitate, 96 h, MTT; read-out: Proliferation A2780 with Palmitate pIC50 (converted)
How it was run: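 A2780 cells were seeded in RPMI1640 with 10% FCS, then switched next day to medium with 10% lipid-reduced serum. Compound was added with final 25 μM palmitate, 0.2% fatty-acid-free BSA and 0.2% DMSO, and incubated 96 h at 37 °C. Read-out was MTT absorbance at 544 nm; pIC50 = −log(IC50) from curve fit.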

T1 sequence (P49327 whole entry): as the sequence (P49327 whole entry, the tested form may be a part) above

SMILES | IC50 [1] [nM] | inhibition at 10 µM [1] [%] | IC50 [2] [nM] | IC50 [3] [nM] | IC50 [4] [nM]
Cc1ccc(C(=O)N2CCC(c3ccc(-c4cnn(C)c4)cc3)CC2)cc1NC(=O)c1cnc(Cl)nc1 [Compound 136, 2-chloro-N-(2-methyl-5-(4-(4-(1-methyl-1H-pyrazol-4-yl)phenyl)piperidine-1-carbonyl)phenyl)pyrimidine-5-carboxamide] | 30.9 | 105 | 69.2 | 1230 | ~5130
Cc1ccc(C(=O)N2CCC(c3ccc(-c4cnn(C)c4)cc3)CC2)cc1NC(=O)c1cc(F)ccc1C [Compound 137, 5-fluoro-2-methyl-N-(2-methyl-5-(4-(4-(1-methyl-1H-pyrazol-4-yl)phenyl)piperidine-1-carbonyl)phenyl)benzamide] | 55 | 103 | 240 | 417 | > 10000
Cc1ccc(C(=O)N2CCC(c3ccc(-c4cnn(C)c4)cc3)CC2)cc1NC(=O)c1ccc(C#N)cc1 [Compound 138, 4-cyano-N-(2-methyl-5-(4-(4-(1-methyl-1H-pyrazol-4-yl)phenyl)piperidine-1-carbonyl)phenyl)benzamide] | 91.2 | 107 | 195 | 331 | > 10000
Cc1ccc(C(=O)N2CC(c3ccc(-c4cnn(C)c4)cc3)C2)cc1NC(=O)c1ccncc1 [Compound 139, N-(2-methyl-5-(3-(4-(1-methyl-1H-pyrazol-4-yl)phenyl)azetidine-1-carbonyl)phenyl)isonicotinamide] | 31.6 | 101 | 95.5 | 97.7 | > 10000
Cc1ccc(C(=O)N2CC(c3ccc(-c4cnn(C)c4)cc3)C2)cc1NC(=O)c1ccc(N(C)C2CCN(C)CC2)nc1 [Compound 140, 6-(methyl(1-methylpiperidin-4-yl)amino)-N-(2-methyl-5-(3-(4-(1-methyl-1H-pyrazol-4-yl)phenyl)azetidine-1-carbonyl)phenyl)nicotinamide] | 15.8 | 114 | 39.8 | ~23.4 | 7760
Cc1ccc(C(=O)N2CC(c3ccc(-c4cnn(C)c4)cc3)C2)cc1NC(=O)c1ccc(N2CCN(C)CC2)nc1 [Compound 141, N-(2-methyl-5-(3-(4-(1-methyl-1H-pyrazol-4-yl)phenyl)azetidine-1-carbonyl)phenyl)-6-(4-methylpiperazin-1-yl)nicotinamide] | 21.9 | 110 | 72.4 | 36.3 | 6610
Cc1ccc(C(=O)N2CC(c3ccc(-c4cnn(C)c4)cc3)C2)cc1NC(=O)C1CC1 [Compound 142, N-(2-methyl-5-(3-(4-(1-methyl-1H-pyrazol-4-yl)phenyl)azetidine-1-carbonyl)phenyl)cyclopropanecarboxamide] | 46.8 | 106 | 110 | 107 | > 10000
Cc1ccc(C(=O)N2CC(c3ccc(-c4cnn(C)c4)cc3)C2)cc1NC(=O)C1CCC1 [Compound 143, N-(2-methyl-5-(3-(4-(1-methyl-1H-pyrazol-4-yl)phenyl)azetidine-1-carbonyl)phenyl)cyclobutanecarboxamide] | 44.7 | 114 | 170 | 302 | > 10000
Cc1ccc(C(=O)N2CCC(c3ccc(-c4cnn(C)c4)cc3)CC2)cc1NC(=O)c1cnc(N(C)C(C)C)nc1 [Compound 144, 2-(isopropyl(methyl)amino)-N-(2-methyl-5-(4-(4-(1-methyl-1H-pyrazol-4-yl)phenyl)piperidine-1-carbonyl)phenyl)pyrimidine-5-carboxamide] | 24 | 106 | 35.5 | ~12.3 | 7760
Cc1ccc(C(=O)N2CCC(c3ccc(-c4cnn(C)c4)cc3)CC2)cc1NC(=O)c1ccc(C(F)(F)F)cc1 [Compound 145, N-(2-methyl-5-(4-(4-(1-methyl-1H-pyrazol-4-yl)phenyl)piperidine-1-carbonyl)phenyl)-4-(trifluoromethyl)benzamide] | 21.9 | 103 | 33.9 | 69.2 | 10500
Cc1ccc(C(=O)N2CCC(c3ccc(-c4cnn(C)c4)cc3)CC2)cc1NC(=O)c1cnc(NC(C)C)nc1 [Compound 146, 2-(isopropylamino)-N-(2-methyl-5-(4-(4-(1-methyl-1H-pyrazol-4-yl)phenyl)piperidine-1-carbonyl)phenyl)pyrimidine-5-carboxamide] | 19.1 | 110 | 32.4 | ~20.4 | > 10000
Cc1ccc(C(=O)N2CCC(c3ccc(-c4cnn(C)c4)cc3)CC2)cc1NC(=O)c1ccc(F)cc1Cl [Compound 147, 2-chloro-4-fluoro-N-(2-methyl-5-(4-(4-(1-methyl-1H-pyrazol-4-yl)phenyl)piperidine-1-carbonyl)phenyl)benzamide] | 34.7 | 107 | 138 | 234 | > 10000
Cc1ccc(C(=O)N2CCC(c3ccc(-c4cnn(C)c4)cc3)CC2)cc1NC(=O)c1ccc(C(C)C)cc1 [Compound 148, 4-isopropyl-N-(2-methyl-5-(4-(4-(1-methyl-1H-pyrazol-4-yl)phenyl)piperidine-1-carbonyl)phenyl)benzamide] | 47.9 | 102 | 53.7 | 89.1 | 8320
Cc1ccc(C(=O)N2CCC(c3ccc(-c4cnn(C)c4)cc3)CC2)cc1NC(=O)c1sccc1C [Compound 149, 3-methyl-N-(2-methyl-5-(4-(4-(1-methyl-1H-pyrazol-4-yl)phenyl)piperidine-1-carbonyl)phenyl)thiophene-2-carboxamide] | 57.5 | 103 | 214 | 457 | 9550
Cc1ccc(C(=O)N2CCC(c3ccc(-c4cnn(C)c4)cc3)CC2)cc1NC(=O)C1CCNCC1 [Compound 150, N-(2-methyl-5-(4-(4-(1-methyl-1H-pyrazol-4-yl)phenyl)piperidine-1-carbonyl)phenyl)piperidine-4-carboxamide] | 43.7 | 110 | 155 | 479 | > 10000
Cc1ccc(C(=O)N2CCC(c3ccc(-c4cnn(C)c4)cc3)CC2)cc1NC(=O)C1CCCO1 (stereo not shown) [Compound 151, N-(2-methyl-5-(4-(4-(1-methyl-1H-pyrazol-4-yl)phenyl)piperidine-1-carbonyl)phenyl)tetrahydrofuran-2-carboxamide] | 148 | 101 | 708 | 1170 | > 10000
Cc1ccc(C(=O)N2CCC(c3ccc(-c4cnn(C)c4)cc3)CC2)cc1NC(=O)c1cnc(N2CCOCC2)nc1 [Compound 152, N-(2-methyl-5-(4-(4-(1-methyl-1H-pyrazol-4-yl)phenyl)piperidine-1-carbonyl)phenyl)-2-morpholinopyrimidine-5-carboxamide] | 21.9 | 106 | 17.4 | 12.3 | 7240
CCC(CC)C(=O)Nc1cc(C(=O)N2CC(c3ccc(-c4cnn(C)c4)cc3)C2)ccc1C [Compound 153, 2-ethyl-N-(2-methyl-5-(3-(4-(1-methyl-1H-pyrazol-4-yl)phenyl)azetidine-1-carbonyl)phenyl)butanamide] | 30.2 | 102 | 61.7 | 38 | 4680
Cc1ccc(C(=O)N2CC(c3ccc(-c4cnn(C)c4)cc3)C2)cc1NC(=O)c1cnc(Cl)nc1 [Compound 154, 2-chloro-N-(2-methyl-5-(3-(4-(1-methyl-1H-pyrazol-4-yl)phenyl)azetidine-1-carbonyl)phenyl)pyrimidine-5-carboxamide] | 26.9 | 108 | 105 | 1350 | 4070
COc1ccc(C(=O)Nc2cc(C(=O)N3CCC(c4ccc(-c5cnn(C)c5)cc4)CC3)ccc2C)cc1Cl [Compound 155, 3-chloro-4-methoxy-N-(2-methyl-5-(4-(4-(1-methyl-1H-pyrazol-4-yl)phenyl)piperidine-1-carbonyl)phenyl)benzamide] | 47.9 | 98 | 93.3 | 85.1 | > 10000

From US9562035B2, “Benzamide derivative useful as FASN inhibitors for the treatment of cancer” (Janssen Pharmaceutica NV, priority 2013, dated 2017)
